Values of other authors, collected in patent US20230233646A1, “METHOD OF TREATMENT OF CONGENITAL MYASTHENIC SYNDROME USING DOK7 GENE OR POLYPEPTIDE” (priority 2020, published 2023).

System: peripheral cholinesterase enzyme

Question: For `CN(C)C(=O)Oc1ccc[n+](C)c1` [Pyridostigmine], which “fraction of peripheral cholinesterase enzyme carbamylated” value is on record?
Answer: about 30%
